How the values were obtained:
PDHK2 = PDHK2 (Homo sapiens (Human), UniProt Q15119); experiment: Biochemical activity testing of PDHK2: PDC inactivation assay; settings: human rec PDHK2, porcine heart PDC, 5 μM ATP, read-out: IC50 PDHK2 (enzyme assay)
Summary of the method: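 Recombinant human PDHK2 (137 nM final) and porcine heart PDC (20 mU/ml) preincubated with compound 30 min at RT in pH 7.0 phosphate kinase buffer, then 5 μM ATP 30 min at 37° C. PDC activity read as NADH fluorescence increase (Ex 340/Em 450 nm) over 45 min with pyruvate, NAD and CoA; 3 mM DCA defined zero; IC50 determined.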

human PDHK2 (12-407) = human PDHK2 (12-407) (Homo sapiens (Human), UniProt Q15119); experiment: Isothermal titration calorimetry (ITC) binding; settings: ITC at 30° C., pH 7.5
Summary of the method: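 Tag-free human PDHK2 (12-407) from E. coli, 50 μM, titrated into 5 μM compound at 30° C in 20 mM HEPES, 135 mM KCl, 1 mM TCEP, 2 mM MgCl2, 15 mM NaH2PO4, pH 7.5, ≤1% DMSO. One-site fit gave KA, ΔH^obs and N after dilution-heat correction. Protein and compound concentrations were normalised to 1:1 stoichiometry against a standard inhibitor.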

[1] = system: PDH-E1alpha (pSer300) in HEK293T cells; experiment: Cellular immunofluorescence assay, PDH-E1alpha (pSer300) in HEK293T cells; assay type: cell-based, human; settings: Homo sapiens, HEK-293T, 5 hours incubation, anti-PDH-E1alpha (pSer300) immunofluorescence, read-out: IC50 (cell data)
Summary of the method: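 Human HEK293T cells exposed to compound for 5 h, then fixed, permeabilised and immunostained for phospho-Ser300 PDH-E1α with Alexa 488 secondary and Hoechst counterstain. Fluorescence read by laser scanning cytometry. Data normalized to a pharmacological inhibitor control for dose-response curves.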

IC50 (PDHK2) [nM]	Kd (human PDHK2 (12-407)) [nM]	Structure (SMILES)	IC50 [1] [nM]
300 to 3000	< 300	C[C@@](O)(C(=O)N1CCn2c(cnc2-c2ccc(F)cc2)C1)C(F)(F)F [Compound A51, (R)-3,3,3-Trifluoro-1-[3-(4-fluoro-phenyl)-5,6-dihydro-8H-imidazo[1,5-a]pyrazin-7-yl]-2-hydroxy-2-methyl-propan-1-one]	3000 to 50000
< 300	< 300	C[C@@H]1CN(C(=O)[C@@](C)(O)C(F)(F)F)Cc2cnc(-c3ccc(F)cc3)n21 [Compound A52, (R)-3,3,3-Trifluoro-1-[(R)-3-(4-fluoro-phenyl)-5-methyl-5,6-dihydro-8H-imidazo[1,5-a]pyrazin-7-yl]-2-hydroxy-2-methyl-propan-1-one]	< 300
< 300	< 300	C[C@@H]1CN(C(=O)[C@@](C)(O)C(F)(F)F)Cc2cnc(-c3ccc(F)cc3F)n21 [Compound A54, (R)-1-[(R)-3-(2,4-Difluoro-phenyl)-5-methyl-5,6-dihydro-8H-imidazo[1,5-a]pyrazin-7-yl]-3,3,3-trifluoro-2-hydroxy-2-methyl-propan-1-one]	< 300
300 to 3000	< 300	C[C@@H]1CN(C(=O)[C@@](C)(O)C(F)(F)F)Cc2cnc(-c3ncc(F)cc3F)n21 [Compound A57, (R)-1-[(R)-3-(3,5-Difluoro-pyridin-2-yl)-5-methyl-5,6-dihydro-8H-imidazo[1,5-a]pyrazin-7-yl]-3,3,3-trifluoro-2-hydroxy-2-methyl-propan-1-one]	< 300

The next lines start with the molecule.

Structure (SMILES)	IC50 (PDHK2) [nM]	Kd (human PDHK2 (12-407)) [nM]	IC50 [1] [nM]
C[C@@](O)(C(=O)N1CCc2c(nnn2-c2ccccc2)C1)C(F)(F)F [Compound A46, (R)-3,3,3-Trifluoro-2-hydroxy-2-methyl-1-(1-phenyl-1,4,6,7-tetrahydro-[1,2,3]triazolo[4,5-c]pyridin-5-yl)-propan-1-one]	300 to 3000	< 300	3000 to 50000
C[C@@](O)(C(=O)N1CCc2c(nnn2-c2ccc(F)cc2)C1)C(F)(F)F [Compound A47, (R)-3,3,3-Trifluoro-1-[1-(4-fluoro-phenyl)-1,4,6,7-tetrahydro-[1,2,3]triazolo[4,5-c]pyridin-5-yl]-2-hydroxy-2-methyl-propan-1-one]	300 to 3000	< 300	3000 to 50000
C[C@@](O)(C(=O)N1CCn2c(-c3ccccc3)cnc2C1)C(F)(F)F [Compound A49, (R)-3,3,3-Trifluoro-2-hydroxy-2-methyl-1-(3-phenyl-5,6-dihydro-8H-imidazo[1,2-a]pyrazin-7-yl)-propan-1-one]	300 to 3000	< 300	3000 to 50000
C[C@@](O)(C(=O)N1CCn2c(cnc2-c2ccccc2)C1)C(F)(F)F [Compound A50, (R)-3,3,3-Trifluoro-2-hydroxy-2-methyl-1-(3-phenyl-5,6-dihydro-8H-imidazo-[1,5-a]pyrazin-7-yl)-propan-1-one]	300 to 3000	< 300	3000 to 50000
